Reference: US5594006A, “Carbostyril derivatives as matrix metalloproteinases inhibitors” (Otsuka Pharmaceutical Co., Ltd., priority 1993, dated 1997)

Columns and labels:
[1] = target: T1, Stromelysin (Mus musculus, UniProt P28862); assay: Stromelysin inhibiting activity (fluorescence labeled casein); format: biochemical; details: from mouse colon cancer cell (Colon 26); 3 hours at 37° C., pH 7.5
T1 construct: endogenous in cells; host or cells: Colon 26 (mouse colon cancer cells), culture supernatant, purified
Experimental: (1) Measuring Method of Stromelysin Inhibiting Activity
Inhibiting of Stromelysin refined from the culture supernatant of mouse colon cancer cell (Colon 26 cell) was measured by using fluorescence labeled casein, according to the method proposed by Miyazaki et al. (J. Biochem., 108, 537-543, 1990), and S. S. Twining [Fed. Proc., 42, 1951 (1984)].
The enzyme was activated by incubating for 2 hours at 37° C. in 1 mM mercury (II) p-aminophenylacetate. The test compound was used by dissolving in dimethyl sulfoxide. The enzyme reaction was started by adding the activated enzyme in a solution of 50 mM TRIS-hydrochloric acid (pH 7.5), 10 mM CaCl2, and 0.1% (v/v) dimethyl sulfoxide containing the test compound and 0.25% (w/v) of fluorescence labeled casein as substrate. The reaction was conducted for 3 hours at 37° C., and stopped by adding an equivalent amount of 5% (w/v) trichloroacetic acid solution. Afterwards, by centrifugal separation for 15 minutes at 3000 rpm, 4° C., the undigested substrate was precipitated, and to 1 part by volume of the obtained supernatant, 4 parts by volume of 0.3M phosphate buffer (pH 8.5) was added, and the fluorescence intensity was measured at 520 nm (Em)/495 nm (Ex), and the decomposition volume was quantitatively determined.
(§1) The enzyme inhibiting activity was expressed by the concentration (IC50) of the test compound wherein the enzyme activity of known amount was inhibited till 50%.

[2] = target: T2, Interstitial collagenase (Homo sapiens, UniProt P03956); assay: Interstitial collagenase inhibiting activity (fluorescence labeled collagen); format: biochemical; details: from human fibroblast cell (Detroit 551); 2 hours at 35° C., pH 7.5
T2 construct: endogenous in cells; host or cells: Detroit 551 (human fibroblasts), culture supernatant, purified
T2 sequence (P03956 100-469): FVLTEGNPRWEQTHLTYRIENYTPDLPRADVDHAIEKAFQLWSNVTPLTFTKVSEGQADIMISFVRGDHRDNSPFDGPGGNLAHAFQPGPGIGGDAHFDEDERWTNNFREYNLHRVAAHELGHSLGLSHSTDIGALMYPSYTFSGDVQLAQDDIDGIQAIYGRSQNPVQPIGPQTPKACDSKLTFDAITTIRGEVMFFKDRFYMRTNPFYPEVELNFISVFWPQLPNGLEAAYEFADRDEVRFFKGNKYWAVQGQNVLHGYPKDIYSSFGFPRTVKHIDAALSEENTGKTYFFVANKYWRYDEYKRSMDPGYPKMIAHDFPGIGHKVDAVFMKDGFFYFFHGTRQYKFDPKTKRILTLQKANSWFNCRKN
Experimental: (2) Measuring Method of Interstitial Collagenase Inhibiting Activity
Inhibiting of interstitial collagenase refined from the culture supernatant of human fibroblast cell (Detroit 551 cell) was measured by using fluorescence labeled collagen, according to the method proposed by Nagai et al. [Inflammation, 4 (2), 123 (1984)].
The enzyme was activated by incubating for 3 hours at 37° C. in 1 mM mercury (II) p-aminophenylacetate. The test compound was used by dissolving in dimethyl sulfoxide. The enzyme reaction was started by adding the activated enzyme in 50 mM TRIS-hydrochloric acid (pH 7.5), 0.2M NaCl, 5 mM CaCl2, 0.02% (w/v) NaN3, 2.5 mM acetic acid, and 0.1% (v/v) dimethyl sulfoxide solution containing the test compound and 0.025% (w/v) of fluorescence labeled collagen as substrate. The reaction was conducted for 2 hours at 35° C., and stopped by adding ice-chilled 80 mM O-phenanthroline, 50% (v/v) ethanol solution by 1/20 amount. To this, moreover, an equivalent volume of 50 mM TRIS-hydrochloric acid (pH 7.5), 0.2M NaCl, 5 mM CaCl2, 0.02% (w/v) NaN3 solution was added to incubate further for 1 hour at 35° C. to degenerate specifically only the digestion product, and the digestion product was extracted by adding 0.17M TRIS-hydrochloric acid (pH 9.5), 0.67M NaCl solution including an equivalent amount of 70% (v/v) ethanol, and afterwards, by centrifugal separation for 15 minutes at 3000 rpm, 4° C., the undigested substrate was precipitated. The fluorescence intensity of the obtained supernatant was measured at 520 nm (Em)/495 nm (Ex), and the decomposition volume was quantitatively determined.
as §1

T1 sequence (P28862 100-477): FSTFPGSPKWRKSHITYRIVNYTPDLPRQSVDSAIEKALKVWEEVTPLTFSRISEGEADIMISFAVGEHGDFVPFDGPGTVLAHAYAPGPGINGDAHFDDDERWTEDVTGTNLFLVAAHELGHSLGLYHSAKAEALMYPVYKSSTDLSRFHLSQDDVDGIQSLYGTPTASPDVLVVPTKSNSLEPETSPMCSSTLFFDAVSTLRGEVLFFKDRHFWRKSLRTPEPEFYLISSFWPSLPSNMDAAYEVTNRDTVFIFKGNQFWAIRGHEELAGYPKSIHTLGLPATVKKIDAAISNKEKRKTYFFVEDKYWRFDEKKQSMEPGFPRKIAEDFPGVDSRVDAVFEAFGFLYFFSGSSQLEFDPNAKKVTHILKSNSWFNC

| Compound | IC50 [1] | IC50 [2] |
| --- | --- | --- |
| COC(=O)c1ccc(CN2C(=O)[C@@H](NC(=O)[C@@H](CC(=O)NO)CC(C)C)Cc3ccccc32)cc1 [Test compound 11, 3S-[4-(N-hydroxyamino)-2R-isobutylsuccinyl]amino-1-(4-methoxycarbonylbenzyl)-3,4-dihydrocarbostyril] | 290 nM | 750 nM |
| COCCOCN1C(=O)[C@@H](NC(=O)[C@@H](CC(=O)NO)CC(C)C)Cc2ccccc21 [Test compound 18, 3S-[4-(N-hydroxyamino)-2R-isobutylsuccinyl]amino-1-methoxyethoxymethyl-3,4-dihydrocarbostyril] | – | 88 nM |
| C=CCN1C(=O)[C@@H](NC(=O)[C@H](CC(C)C)[C@H](C)C(=O)NO)Cc2ccccc21 [Test compound 13, 1-allyl-3S-[4-(N-hydroxyamino)-2R-isobutyl-3S-methylsuccinyl]amino-3,4-dihydrocarbostyril] | 28 nM | 10 nM |
| CON1C(=O)[C@@H](NC(=O)[C@H](CC(C)C)[C@H](C)C(=O)NO)Cc2ccccc21 [Test compound 9, 3S-[4-(N-hydroxyamino)-2R-isobutyl-3S-methylsuccinyl]amino-1-methoxy-3,4-dihydrocarbostyril] | 36 nM | 22 nM |
| CC(C)C[C@H](CC(=O)NO)C(=O)N[C@H]1Cc2ccccc2N(CC(N)=O)C1=O [Test compound 10, 1-aminocarbonylmethyl-3S-[4-(N-hydroxyamino)-2R-isobutylsuccinyl]amino-3,4-dihydrocarbostyril] | 200 nM | 31 nM |
| CCCCCCC[C@H](CC(=O)NO)C(=O)N[C@H]1Cc2ccccc2N(OC)C1=O [Test compound 20, 3S-[4-(N-hydroxyamino)-2R-heptylsuccinyl]amino-1-methoxy-3,4-dihydrocarbostyril] | – | 220 nM |
| CCN1C(=O)[C@@H](NC(=O)[C@@H](CC(=O)NO)CC(C)C)Cc2ccccc21 [Test compound 12, 1-ethyl-3S-[4-(N-hydroxyamino)-2R-isobutylsuccinyl]amino-3,4-dihydrocarbostyril] | 700 nM | 290 nM |
| CC(C)C[C@@H](C(=O)N[C@H]1Cc2ccccc2N(CC(=O)O)C1=O)[C@H](C)C(=O)NO [Test compound 16, 1-carboxymethyl-3S-[4-(N-hydroxyamino)-2R-isobutyl-3S-methylsuccinyl]amino-3,4-dihydrocarbostyril] | – | 69 nM |
| CCOC(=O)CN1C(=O)[C@@H](NC(=O)[C@@H](CC(=O)NO)CC(C)C)Cc2ccccc21 [Test compound 8, 1-ethoxycarbonylmethyl-3S-[4-(N-hydroxyamino)-2R-isobutylsuccinyl]amino-3,4-dihydrocarbostyril] | 380 nM | 160 nM |
| COCN1C(=O)[C@@H](NC(=O)[C@@H](CC(=O)NO)CC(C)C)Cc2ccccc21 [Test compound 14, 3S-[4-(N-hydroxyamino)-2R-isobutylsuccinyl]amino-1-methoxymethyl-3,4-dihydrocarbostyril] | 37 nM | 22 nM |
| CCON1C(=O)[C@@H](NC(=O)[C@@H](CC(=O)NO)CC(C)C)Cc2ccccc21 [Test compound 17, 1-ethoxy-3S-[4-(N-hydroxyamino)-2R-isobutylsuccinyl]amino-3,4-dihydrocarbostyril] | – | 41 nM |
| C#CCN1C(=O)[C@@H](NC(=O)[C@H](CC(C)C)[C@H](C)C(=O)NO)Cc2ccccc21 [Test compound 15, 3S-[4-(N-hydroxyamino)-2R-isobutyl-3S-methylsuccinyl]amino-1-(2-propynyl)-3,4-dihydrocarbostyril] | – | 20 nM |

Second part, the molecule after the results:

| IC50 [1] | IC50 [2] | Compound |
| --- | --- | --- |
| – | 4100 nM | COCCN1C(=O)[C@H](NC(=O)[C@@H](CC(=O)NO)CC(C)C)Cc2cc3c(cc21)OCO3 [Test compound 25, 3R-[4-(N-hydroxyamino)-2R-isobutylsuccinyl]amino-1-methoxyethyl-6,7-methylenedioxy-3,4-dihydrocarbostyril] |
| – | 0.064 nM | CON1C(=O)[C@@H](NC(=O)[C@H](CC(C)C)C(Cc2ccc3c(c2)OCO3)C(=O)NO)Cc2ccccc21 (stereo partly drawn) [Test compound 23, 3S-[4-(N-hydroxyamino)-2R-isobutyl-3-(3,4-methylenedioxybenzyl)succinyl]amino-1-methoxy-3,4-dihydrocarbostyril] |
| – | 370 nM | COCON1C(=O)[C@@H](NC(=O)[C@@H](CC(=O)NO)CC(C)C)Cc2ccccc21 [Test compound 31, 3S-[4-(N-hydroxyamino)-2R-isobutylsuccinyl]amino-1-methoxymethoxy-3,4-dihydrocarbostyril] |
| – | 87 nM | CCN1C(=O)[C@@H](NC(=O)[C@@H](CC(=O)NO)CC(C)C)Cc2cc3c(cc21)OCO3 [Test compound 28, 1-ethyl-3S-[4-(N-hydroxyamino)-2R-isobutylsuccinyl]amino-6,7-methylenedioxy-3,4-dihydrocarbostyril] |
| – | 11 nM | CCCCC[C@H](CC(=O)NO)C(=O)N[C@H]1Cc2ccccc2N(OC)C1=O [Test compound 30, 3S-[4-(N-hydroxyamino)-2R-pentylsuccinyl]amino-1-methoxy-3,4-dihydrocarbostyril] |
| – | 3700 nM | CCOCC[C@H](CC(=O)NO)C(=O)N[C@H]1Cc2ccccc2N(OC)C1=O [Test compound 22, 3S-[4-(N-hydroxyamino)-2R-ethoxyethylsuccinyl]amino-1-methoxy-3,4-dihydrocarbostyril] |
| – | 1000 nM | COCCN1C(=O)C(NC(=O)[C@@H](CC(=O)NO)CC(C)C)Cc2cc3c(cc21)OCO3 (stereo partly drawn) [Test compound 26, 3-[4-(N-hydroxyamino)-2R-isobutylsuccinyl]amino-1-methoxyethyl-6,7-methylendioxy-3,4-dihydrocarbostyril] |
| – | 740 nM | COCCN1C(=O)[C@@H](NC(=O)[C@@H](CC(=O)NO)CC(C)C)Cc2cc3c(cc21)OCO3 [Test compound 24, 3S-[4-(N-hydroxyamino)-2R-isobutylsuccinyl]amino-1-methoxyethyl-6,7-methylenedioxy-3,4-dihydrocarbostyril] |
| – | 110 nM | COCCN1C(=O)[C@@H](NC(=O)[C@@H](CC(=O)NO)CC(C)C)Cc2ccccc21 [Test compound 21, 3S-[4-(N-hydroxyamino)-2R-isobutylsuccinyl]amino-1-methoxyethyl-3,4-dihydrocarbostyril] |
